Experimental data from ChEMBL document CHEMBL1201862, “PubChem BioAssay data set” (2004).
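Protocol summary: plate cells (96-well), add compound at 5 concentrations, incubate 48 h, interpolate endpoints linearly. Here, GI50 denotes the concentration required for 50% inhibition of growth.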 Active and inactive are the calls of the source. Cut-off read from the data, not from the text of the source: active = GI50 up to about 1.1 µM and inactive = higher.

Experiments:
Test in all cases: inhibition of tumour cell growth, NCI panel, 48 h
A498 = test system: A498
A549 = test system: A549
ACHN = test system: ACHN
DU-145 = test system: DU-145
HCT-15 = test system: HCT-15
HOP-62 = test system: HOP-62
HOP-92 = test system: HOP-92
HT-29 = test system: HT-29
KM12 = test system: KM12
M14 = test system: M14
MCF7 = test system: MCF7
MDA-N = test system: MDA-N
NCI-H23 = test system: NCI-H23
NCI/ADR-RES = test system: NCI/ADR-RES
OVCAR-3 = test system: OVCAR-3
SK-MEL-2 = test system: SK-MEL-2
SK-OV-3 = test system: SK-OV-3
T47D = test system: T47D
TK-10 = test system: TK-10
UACC-62 = test system: UACC-62

| Structure (SMILES) | GI50 (A498) | GI50 (A549) | GI50 (ACHN) | GI50 (DU-145) | GI50 (HCT-15) | GI50 (HOP-62) | GI50 (HOP-92) | GI50 (HT-29) | GI50 (KM12) | GI50 (M14) | GI50 (MCF7) | GI50 (MDA-N) | GI50 (NCI-H23) | GI50 (NCI/ADR-RES) | GI50 (OVCAR-3) | GI50 (SK-MEL-2) | GI50 (SK-OV-3) | GI50 (T47D) | GI50 (TK-10) | GI50 (UACC-62) |
| --- | --- | --- | --- | --- | --- | --- | --- | --- | --- | --- | --- | --- | --- | --- | --- | --- | --- | --- | --- | --- |
| COC(=O)c1ccc(CCc2cc(O)c(Br)cc2O)cc1 | 22.1 µM (inactive) | 19.5 µM (inactive) | 13.2 µM (inactive) | 14.4 µM (inactive) | 13.4 µM | 17.6 µM (inactive) | 12.9 µM (inactive) | 16.8 µM (inactive) | 15.1 µM (inactive) | 15.6 µM (inactive) | 13.5 µM (inactive) | 15.7 µM (inactive) | 10.4 µM (inactive) | 14.3 µM (inactive) | 8.02 µM (inactive) | 18.9 µM (inactive) | 25.4 µM (inactive) | 18.6 µM (inactive) | 14.5 µM (inactive) | 14.1 µM (inactive) |
| O=C1C(Cl)=C(Cl)C(Cl)(Cl)C(Cl)C1(Cl)Cl (stereo not given) | 15.2 µM (inactive) | 20.9 µM (inactive) | 29.8 µM (inactive) | 27.4 µM (inactive) | 29.6 µM | 23.4 µM (inactive) | 16.9 µM (inactive) | 24.5 µM (inactive) | 20.1 µM (inactive) | 25.6 µM (inactive) | 22.7 µM (inactive) | 23.7 µM (inactive) | 21.9 µM (inactive) | 25.3 µM (inactive) | 17.7 µM (inactive) | 15.8 µM (inactive) | 26.2 µM (inactive) | 21 µM (inactive) | 19.5 µM (inactive) | 16.7 µM (inactive) |
| N#Cc1nc(-c2ccccn2)c(-c2ccccn2)nc1C#N | 2.09 µM (inactive) | 1.14 µM (inactive) | 1.11 µM (active) | 2.32 µM (inactive) | 0.682 µM | 1.74 µM (inactive) | 7.96 µM (inactive) | 2.82 µM (inactive) | 2.52 µM (inactive) | 1.59 µM (inactive) | 1.22 µM (inactive) | 2.61 µM (inactive) | 2.9 µM (inactive) | 1.8 µM (inactive) | 3.79 µM (inactive) | 3.59 µM (inactive) | 1.6 µM (inactive) | 1.69 µM (inactive) | 1.82 µM (inactive) | 0.47 µM (active) |
| COc1c(Br)cc2c(c1OC)C(Br)CCC(Br)(Br)C2=O (stereo not given) | 3.32 µM (inactive) | 4.34 µM (inactive) | 2.29 µM (inactive) | 3.01 µM (inactive) | 0.314 µM | 2.19 µM (inactive) | 3.3 µM (inactive) | 0.968 µM (active) | 3.72 µM (inactive) | 0.228 µM (active) | 0.74 µM (active) | 0.242 µM (active) | 0.386 µM (active) | 0.587 µM (active) | 1.14 µM (inactive) | 1.1 µM (active) | 2.9 µM (inactive) | 1.85 µM (inactive) | 3.17 µM (inactive) | 3.18 µM (inactive) |
| CN1C(c2ccccc2)CC(=NOCc2ccccc2)CC1c1ccccc1 (stereo not given) | 44.7 µM (inactive) | 20.7 µM (inactive) | 46.1 µM (inactive) | 47.6 µM (inactive) | 23.2 µM | 49.5 µM (inactive) | 48.9 µM (inactive) | 26.2 µM (inactive) | 21.9 µM (inactive) | 42.5 µM (inactive) | 18.6 µM (inactive) | 23.3 µM (inactive) | 28.2 µM (inactive) | 19.3 µM (inactive) | 29 µM (inactive) | 57.4 µM (inactive) | 75 µM (inactive) | 17.7 µM (inactive) | 46.9 µM (inactive) | 52.4 µM (inactive) |
| CCOC(=O)C(CS)NC(=O)CCCCCCCC(=O)NC(CS)C(=O)OCC (stereo not given) | > 100 µM (inactive) | > 100 µM (inactive) | > 100 µM (inactive) | > 100 µM (inactive) | > 100 µM | > 100 µM (inactive) | > 100 µM (inactive) | > 100 µM (inactive) | > 100 µM (inactive) | > 100 µM (inactive) | > 100 µM (inactive) | > 100 µM (inactive) | > 100 µM (inactive) | > 100 µM (inactive) | > 100 µM (inactive) | 36.9 µM (inactive) | > 100 µM (inactive) | > 100 µM (inactive) | > 100 µM (inactive) | > 100 µM (inactive) |
| CON(C)C(=O)[C@H]1C[C@@]1(C)CO | > 100 µM (inactive) | > 100 µM (inactive) | > 100 µM (inactive) | > 100 µM (inactive) | > 100 µM | > 100 µM (inactive) | > 100 µM (inactive) | > 100 µM (inactive) | > 100 µM (inactive) | > 100 µM (inactive) | > 100 µM (inactive) | > 100 µM (inactive) | > 100 µM (inactive) | > 100 µM (inactive) | > 100 µM (inactive) | > 100 µM (inactive) | > 100 µM (inactive) | > 100 µM (inactive) | > 100 µM (inactive) | > 100 µM (inactive) |
| COc1ccc(C[C@H]2NC[C@H](O)[C@H]2OC(C)=O)cc1 [ANISOMYCIN] | 0.0324 µM (active) | 0.0232 µM (active) | < 0.0144 µM (active) | 0.0223 µM (active) | 0.0326 µM | < 0.021 µM (active) | 0.016 µM (active) | < 0.0149 µM (active) | 0.0224 µM (active) | < 0.0136 µM (active) | 0.0193 µM (active) | 0.0313 µM (active) | 0.0316 µM (active) | 0.0282 µM (active) | 0.0263 µM (active) | 0.0287 µM (active) | 0.0398 µM (active) | 0.0303 µM (active) | 0.0479 µM (active) | 0.0362 µM (active) |
| COc1c(C)c2c(c(O)c1C/C=C(\C)CCC(=O)O)C(=O)OC2 [MYCOPHENOLIC ACID] | > 100 µM (inactive) | 0.659 µM (active) | 1.75 µM (inactive) | > 100 µM (inactive) | 0.423 µM | 6.44 µM (inactive) | 4.68 µM (inactive) | 0.867 µM (active) | 0.944 µM (active) | 1.58 µM (inactive) | 0.376 µM (active) | 1.46 µM (inactive) | 0.471 µM (active) | 2.97 µM (inactive) | 2.91 µM (inactive) | > 51.4 µM (inactive) | 1.43 µM (inactive) | 7.33 µM (inactive) | 17.4 µM (inactive) | 0.881 µM (active) |
| CC(=O)O[C@@H]1CO[C@H]2O[C@H]3[C@@H](C(C=O)=C[C@H](O)[C@@H]4C5=C(C(C)C)CC[C@]5(C)CC[C@@]34C)[C@@]2(O)C1=O [STRIATIN E] | 0.305 µM (active) | 0.805 µM (active) | 0.114 µM (active) | 0.716 µM (active) | 0.2 µM | 0.575 µM (active) | 0.21 µM (active) | 0.0918 µM (active) | 0.404 µM (active) | 0.262 µM (active) | 0.217 µM (active) | 0.177 µM (active) | 0.209 µM (active) | 0.189 µM (active) | 0.139 µM (active) | 0.23 µM (active) | 3.74 µM (inactive) | 0.0889 µM (active) | 0.229 µM (active) | 0.515 µM (active) |
